Earlier results, collected in US20060088904A1, “Methods for the synthesis of astaxanthin” (priority 2004, published 2006).

Legend:
[1] = tested on: peroxyl radical chain reaction in liposome systems; settings: appropriate dose
[2] = tested on: cigarette-smoke induced lung pathology; settings: ferret
[3] = tested on: transformed cells as well as normal prostatic epithelium; settings: cultured human cells; alone and/or in combination with other antioxidants (e.g. vitamin E)

In the case of `CC1=C(/C=C/C(C)=C/C=C/C(C)=C/C=C/C=C(C)/C=C/C=C(C)/C=C/C2=C(C)C(=O)C(O)CC2(C)C)C(C)(C)CC(O)C1=O` (stereo not drawn) [astaxanthin], the “suppression of peroxyl radical chain reaction” value [1] is given as “completely suppress”.
In the case of `CC(C)=CCC/C(C)=C/C=C/C(C)=C/C=C/C(C)=C/C=C/C=C(C)/C=C/C=C(C)/C=C/C=C(\C)CCC=C(C)C` [lycopene], the “protection against cigarette-smoke induced lung pathology” value [2] is listed as “protective” and the growth inhibition [3] is listed as “growth inhibitory”.
